According to patent US20260284208A1, “SYSTEM” (Oxford University Innovation Limited, priority 2023, published 2026):

Tested on: library of 8,380 IKZF3 degrons (ZF-eGFP/mCherry reporter) in Jurkat cells
Assay: Pooled library screen (FACS, NGS, limma voom LogFC of positive vs negative read counts)
Assay type: cell-based, human
Procedure, shortened: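 Cells were lentivirally transduced at MOI <0.3, and mCherry+ cells were sorted 6 days later. Eight days after sorting, cells were treated with DMSO or thalidomide analog for 18 h at 37 °C. mCherry+GFPlow (DMSO-set gate, DAPI-excluded) and remaining cells were sorted, and degrons were PCR-amplified from gDNA and sequenced (>600× coverage, 3 biological replicates).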

## CN1CCN(c2ccc3c(c2)C(=O)N(C2CCC(=O)NC2=O)C3=O)CC1 (stereo not drawn) [B08, 2-(2,6-dioxopiperidin-3-yl)-5-(4-methylpiperazin-1-yl)isoindoline-1,3-dione]
Degron-ID 3435, SEQ ID NO 2286, 46F_47S_49E_50I_52G_53A_54S_55F_67L
  B08_logFC: 2.841
Degron-ID 3476, SEQ ID NO 2339, 46F_47S_49E_50V_52G_53A_54T_55F_67L
  B08_logFC: 2.705
Degron-ID 3600, SEQ ID NO 2322, 46F_47T_49D_50I_52G_53A_54A_55F_67L
  B08_logFC: 2.751
Degron-ID 3732, SEQ ID NO 2280, 46F_47T_49N_50I_52G_53A_54P_55F_67L
  B08_logFC: 2.855
Degron-ID 3820, SEQ ID NO 2304, 46F_47T_49P_50V_52G_53A_54A_55F_67L
  B08_logFC: 2.797
Degron-ID 3832, SEQ ID NO 2318, 46F_47T_49P_50V_52G_53A_54P_55F_67L
  B08_logFC: 2.762
Degron-ID 3892, SEQ ID NO 2316, 46F_47V_49D_50V_52G_53A_54P_55F_67L
  B08_logFC: 2.764
Degron-ID 3900, SEQ ID NO 2351, 46F_47V_49E_50I_52G_53A_54A_55F_67L
  B08_logFC: 2.675
Degron-ID 3905, SEQ ID NO 2298, 46F_47V_49E_50I_52G_53A_54G_55F_67L
  B08_logFC: 2.805
Degron-ID 3955, SEQ ID NO 2295, 46F_47V_49E_50V_52G_53A_54S_55F_67L
  B08_logFC: 2.815
Degron-ID 4129, SEQ ID NO 2331, 46F_47W_49D_50V_52G_53A_54L_55F_67L
  B08_logFC: 2.733
Degron-ID 4132, SEQ ID NO 2320, 46F_47W_49D_50V_52G_53A_54P_55F_67L
  B08_logFC: 2.758
Degron-ID 4158, SEQ ID NO 2311, 46F_47W_49E_50I_52G_53A_54W_55F_67L
  B08_logFC: 2.771
Degron-ID 4168, SEQ ID NO 2309, 46F_47W_49E_50Q_52G_53A_54K_55F_67L
  B08_logFC: 2.774
Degron-ID 4182, SEQ ID NO 2288, 46F_47W_49E_50V_52G_53A_54D_55F_67L
  B08_logFC: 2.825
Degron-ID 4259, SEQ ID NO 2276, 46F_47W_49N_50V_52G_53A_54Y_55F_67L
  B08_logFC: 2.879
Degron-ID 4262, SEQ ID NO 2312, 46F_47W_49P_50I_52G_53A_54D_55F_67L
  B08_logFC: 2.769
Degron-ID 4269, SEQ ID NO 2299, 46F_47W_49P_50I_52G_53A_54L_55F_67L
  B08_logFC: 2.805
Degron-ID 4294, SEQ ID NO 2296, 46F_47W_49P_50Q_52G_53A_54R_55F_67L
  B08_logFC: 2.812
Degron-ID 4325, SEQ ID NO 2330, 46F_47Y_49D_50I_52G_53A_54G_55F_67L
  B08_logFC: 2.741
Degron-ID 4368, SEQ ID NO 2270, 46F_47Y_49D_50V_52G_53A_54K_55F_67L
  B08_logFC: 2.897
Degron-ID 4374, SEQ ID NO 2335, 46F_47Y_49D_50V_52G_53A_54R_55F_67L
  B08_logFC: 2.715
Degron-ID 4377, SEQ ID NO 2302, 46F_47Y_49D_50V_52G_53A_54V_55F_67L
  B08_logFC: 2.8
Degron-ID 4384, SEQ ID NO 2279, 46F_47Y_49E_50I_52G_53A_54F_55F_67L
  B08_logFC: 2.859
Degron-ID 4400, SEQ ID NO 2269, 46F_47Y_49E_50Q_52G_53A_54A_55F_67L
  B08_logFC: 2.899
Degron-ID 4413, SEQ ID NO 2317, 46F_47Y_49E_50Q_52G_53A_54Q_55F_67L
  B08_logFC: 2.763
Degron-ID 4415, SEQ ID NO 2272, 46F_47Y_49E_50Q_52G_53A_54S_55F_67L
  B08_logFC: 2.888
Degron-ID 4445, SEQ ID NO 2347, 46F_47Y_49N_50I_52G_53A_54G_55F_67L
  B08_logFC: 2.678
Degron-ID 4493, SEQ ID NO 2313, 46F_47Y_49N_50V_52G_53A_54Q_55F_67L
  B08_logFC: 2.769
Degron-ID 4495, SEQ ID NO 2266, 46F_47Y_49N_50V_52G_53A_54S_55F_67L
  B08_logFC: 2.902
Degron-ID 4508, SEQ ID NO 2306, 46F_47Y_49P_50I_52G_53A_54K_55F_67L
  B08_logFC: 2.789
Degron-ID 4509, SEQ ID NO 2274, 46F_47Y_49P_50I_52G_53A_54L_55F_67L
  B08_logFC: 2.886
Degron-ID 4536, SEQ ID NO 2353, 46F_47Y_49P_50Q_52G_53A_54T_55F_67L
  B08_logFC: 2.667
Degron-ID 4543, SEQ ID NO 2292, 46F_47Y_49P_50V_52G_53A_54E_55F_67L
  B08_logFC: 2.819
Degron-ID 4550, SEQ ID NO 2352, 46F_47Y_49P_50V_52G_53A_54M_55F_67L
  B08_logFC: 2.668
Degron-ID 6545, SEQ ID NO 2345, 46L_47F_49P_50I_52G_53F_54G_55C_67L
  B08_logFC: 2.683
Degron-ID 6550, SEQ ID NO 2301, 46L_47F_49P_50I_52G_53F_54M_55C_67L
  B08_logFC: 2.8
Degron-ID 6559, SEQ ID NO 2357, 46L_47F_49P_50I_52G_53F_54Y_55C_67L
  B08_logFC: 2.661
Degron-ID 6755, SEQ ID NO 2278, 46L_47S_49P_50I_52G_53F_54S_55C_67L
  B08_logFC: 2.86
Degron-ID 6775, SEQ ID NO 2332, 46L_47T_49P_50I_52G_53F_54S_55C_67L
  B08_logFC: 2.73
Degron-ID 6795, SEQ ID NO 2300, 46L_47V_49P_50I_52G_53F_54S_55C_67L
  B08_logFC: 2.801
Degron-ID 6824, SEQ ID NO 2285, 46L_47Y_49P_50I_52G_53F_54F_55C_67L
  B08_logFC: 2.841
Degron-ID 6834, SEQ ID NO 2344, 46L_47Y_49P_50I_52G_53F_54R_55C_67L
  B08_logFC: 2.685
Degron-ID 7574, SEQ ID NO 2310, 46F_47W_49E_50I_52G_53R_54R_55F_67L
  B08_logFC: 2.772
Degron-ID 7616, SEQ ID NO 2308, 46L_47A_49E_50I_52G_53F_54T_55C_67L
  B08_logFC: 2.779
Degron-ID 7636, SEQ ID NO 2363, 46L_47C_49E_50I_52G_53F_54T_55C_67L
  B08_logFC: 2.644
Degron-ID 7736, SEQ ID NO 2325, 46L_47H_49E_50I_52G_53F_54T_55C_67L
  B08_logFC: 2.749
Degron-ID 7915, SEQ ID NO 2362, 46L_47T_49E_50I_52G_53F_54S_55C_67L
  B08_logFC: 2.649
Degron-ID 7964, SEQ ID NO 2360, 46L_47Y_49E_50I_52G_53F_54F_55C_67L
  B08_logFC: 2.653
Degron-ID 7971, SEQ ID NO 2297, 46L_47Y_49E_50I_52G_53F_54N_55C_67L
  B08_logFC: 2.807
WT ZF sequence
  position of the WT sequence in the volcano plot of the library screen: far away from the ‘hits’ region
